The values below are quoted from earlier work in patent US20040185057A1, “Therapeutical vaccination” (priority 2001, published 2004).

Test system in the first series: not given
The settings on record: concentrations in the pg range.
Consider `CC(=O)O[C@@H]1[C@H](O[C@@H]2O[C@@H](CO)[C@H](O)[C@H]2O)[C@@H](O[C@@H]2O[C@@H](C)[C@H](O[C@@H]3OC[C@@H](O)[C@H](O)[C@H]3O)[C@@H](O)[C@H]2O)[C@H](OC(=O)[C@]23CCC(C)(C)C[C@H]2C2=CC[C@@H]4[C@@]5(C)CC[C@H](O[C@@H]6O[C@H](C(=O)O)[C@@H](O)[C@H](O[C@@H]7OC[C@@H](O)[C@H](O)[C@H]7O)[C@H]6O[C@@H]6O[C@H](CO)[C@H](O)[C@H](O)[C@H]6O)[C@@](C)(C=O)[C@H]5CC[C@@]4(C)[C@]2(C)CC3)O[C@@H]1C` [Squarroside A], for which the immunomodulating effect result is “stimulant effect”.

The same series, now with this note: concentrations in the μg range.
For `CC(=O)O[C@@H]1[C@H](O[C@@H]2O[C@@H](CO)[C@H](O)[C@H]2O)[C@@H](O[C@@H]2O[C@@H](C)[C@H](O[C@@H]3OC[C@@H](O)[C@H](O)[C@H]3O)[C@@H](O)[C@H]2O)[C@H](OC(=O)[C@]23CCC(C)(C)C[C@H]2C2=CC[C@@H]4[C@@]5(C)CC[C@H](O[C@@H]6O[C@H](C(=O)O)[C@@H](O)[C@H](O[C@@H]7OC[C@@H](O)[C@H](O)[C@H]7O)[C@H]6O[C@@H]6O[C@H](CO)[C@H](O)[C@H](O)[C@H]6O)[C@@](C)(C=O)[C@H]5CC[C@@]4(C)[C@]2(C)CC3)O[C@@H]1C` [Squarroside A], the immunomodulating effect entry was “suppressive effect”.

The subject of a further series is HLA-A2 super type MHC class-I molecule, allele A*6802. The settings on record: HLA-A2 allele A*6802; read-out: Binding capacity, IC50.
Take AIIRILQQL: the IC50 is 548 nM.
In the case of KMIGGIGGFI, the IC50 is 3330 nM.
For LLQLTVWGI, the IC50 was 645 nM.
As for LTFGWCFKL, the IC50 was 5.6 nM.
As to LTFGWCFKLV, the IC50 was 6.2 nM.
As to LVGPTPVNI, the IC50 was 67.8 nM.
Turning to MASDFNLPPV, the IC50 was 18.2 nM.
MTNNPPIPV: the IC50 was 12.1 nM.
Turning to RILQQLLFI, the IC50 is 1820 nM.
Consider SLLNATDIAV, for which the IC50 was 5480 nM.

Usually IC50 stands for the midpoint of a concentration-inhibition curve.
